What was measured:
Assay type in all cases: in vivo, BALB/c mice
[1] = test system: CT-26 mouse colon adenocarcinoma model; assay: Anti-tumor activity in the CT-26 colon adenocarcinoma mouse model, alone and with anti-PD-1
Protocol: (§1) The antitumor activity of Compound B as a single agent and combined with a mouse anti-PD-1 antibody was evaluated in the CT-26 mouse colon adenocarcinoma model grown in BALB/c mice. Mice were inoculated subcutaneously in the right flank with 5×10^5 tumor cells. When tumors reached an average size of 71 mm^3 (6 days after tumor cell inoculation) dosing was initiated. The dosing regimens in the 8 separate cohorts comprising 10 mice each are as follows: […]

[2] = test system: CT-26 mouse colon adenocarcinoma model; assay: Anti-tumor activity in the CT-26 model, additional experiment with anti-PD1; conditions: single agents (Compound B 15 mg/kg BID; anti-PD1 10 mg/kg BIW) versus vehicle, n=7/group
Protocol: as §1, with “mouse anti-PD1” for “mouse anti-PD-1”, “BALB/c mice in an additional experiment.” for “BALB/c mice.”, “of 91” for “of 71”, “mm^3” for “mm^3 (6 days after tumor cell inoculation)”, “the 4” for “the 8”, “comprising 7” for “comprising 10”

[3] = test system: 4T1 mouse breast cancer model; assay: Anti-tumor activity in the 4T1 breast cancer mouse model, alone and with anti-CTLA4
Protocol: The antitumor activity of Compound B (as described in example 9 above) as a single agent and combined with a mouse anti-CTLA4 antibody was evaluated in the 4T1 mouse breast cancer model grown in BALB/c mice. Mice were inoculated subcutaneously in the right flank with 3×10^5 tumor cells. When tumors reached an average size of 100 mm^3 (7 days after tumor cell inoculation) dosing was initiated.

[4] = test system: 4T1 mouse breast cancer model; assay: Anti-tumor activity in the 4T1 model, additional experiment with anti-PD1; conditions: Compound B 15 mg/kg BID single agent, n=7/group
Protocol: The antitumor activity of Compound B as a single agent and combined with a mouse anti-PD1 antibody was evaluated in the 4T1 mouse breast cancer model grown in BALB/c mice in an additional experiment. Mice were inoculated subcutaneously in the right flank with 3×10^5 tumor cells. When tumors reached an average size of 97 mm^3 dosing was initiated. The dosing regimens in the 4 separate cohorts comprising 7 mice each are as follows: […]

CT-26 tumors = assay: Immune cell composition of CT-26 tumors by flow cytometry; conditions: after 7 days dosing; Compound B 15 mg/kg BID, anti-PD-1 10 mg/kg Q3D; versus vehicle
Protocol: The immune cell composition of Compound B (as described in example 9 above) as a single agent and combined with a mouse anti-PD1 antibody was evaluated in the CT-26 mouse colon adenocarcinoma model grown in BALB/c mice. Mice were inoculated subcutaneously in the right flank with 5×10^5 tumor cells. When tumors reached an average size of 85 mm^3 dosing was initiated. The dosing regimens in the 4 separate cohorts comprising 10 mice each are listed as follows:
After dosing animals for 7 days, tumors were resected and used to prepare single cell suspensions. Live cells representing tumor and immune cells were stained with cocktails of antibodies targeting multiple immune cell markers (anti-CD45, anti-CD3, anti-CD4, anti-CD8, anti-CD25, anti-FoxP3, anti-PD-1, anti-CD11c) conjugated to different fluorescent tags. The stained cells were fixed in 4% paraformaldehyde and quantified using a multi-color flow cytometer (Fortessa). The data was analyzed with FloJo software.

C[C@H](NC(=O)c1cc(Cl)cnc1Oc1cccc(F)c1)c1ccc(C(=O)O)cc1 [Compound B]
tumor growth kinetics during the period of dosing ([1]; 15 mg/kg QD and BID p.o., single agent, versus vehicle, n=10/group): not notably different from the vehicle treated mice | mice still alive ([1]; 99 days after tumor inoculation): 1 out of 10 mice | tumor free mice ([1]; 99 days after tumor inoculation, 10 mice per group): 1 mice | tumor growth kinetics during the period of dosing [2]: less than that of the vehicle group | mice still alive ([3]; 47 days after tumor inoculation): none | tumor growth kinetics during the period of dosing ([3]; single agents (Compound B 15 mg/kg BID; anti-CTLA4) versus vehicle, n=10/group): decreased relative to the vehicle treated mice | tumor growth kinetics during the period of dosing [4]: less than that of the vehicle group and anti-PD1 when dosed alone | percentage of activated T cells (CD45, CD3, CD8; CD25 expression) (CT-26 tumors): did not | percentage of dendritic cells (CD45, CD11c positive) (CT-26 tumors): increased percentage | regulatory T cells (CD45, CD4, FoxP3, CD25 positive) (CT-26 tumors): significant decrease

— patent US20210353648A1, “GRAPIPRANT UNIT DOSAGE FORMS” (Arrys Therapeutics, Inc., priority 2018, published 2021)
